SMILES strings stand for the structures.

By melting point is commonly meant the temperature of the solid-liquid transition. In the case of `O=C1Nc2ccccc2C1C(=O)C(F)(F)F` (stereo not given), the melting point was determined as 184 °C.
Regarding `CC(C)C(=O)N[C@@H](CSC(=O)c1ccccc1)C(=O)NCCSC(=O)C(C)(C)C`, the melting point is 123 to 124 °C.
Consider `COc1ccc(N(C(=O)c2ccc3ccccc3c2)c2ccc(OCc3ccccc3)cc2)cc1`, for which the melting point was 175 to 176 °C.
Turning to `CCOC(=O)c1c(N2CCN(C=O)CC2)c2cc(C)ccc2n(Cc2ccccc2)c1=O`, the melting point came to 196 °C.
Molecule `COc1ccc2ccc(C(N)=O)c(OC(C)C)c2c1` showed a melting point of 172 to 174 °C.
The molecule `Cc1noc(NC(=O)N2CCN(c3nccc(-c4cc(F)cc(F)c4)n3)CC2)c1C` had a melting point of 241 to 242 °C.
The molecule `N#CC(=CN1CCOCC1)C(C[N+](=O)[O-])c1cccc(Cl)c1Cl` (stereo not given) returned a melting point of 74 to 77 °C.
`COc1ccc(-c2nc(OCC(F)(F)F)nn2-c2ccc(OC)nc2)cc1` yielded a melting point of 63 to 64 °C.
Take `Cc1ccc(-c2ccc(S(C)(=O)=O)cc2)n1-c1ccc(Br)cc1`: the melting point fell in the range of 200 to 202 °C.
`Oc1c(CN2CCCC2)cc(Nc2ccnc3cc(Cl)ccc23)cc1CN1CCCC1` returned a melting point of 92 °C.
Take `CCC(CC)c1ccc(Cl)c2nc(Nc3cnc(OC)cc3C)n(CCCCO)c12`: the melting point lay in the range of 146 to 147 °C.
`O=C(O)c1ccc(NN=C2CCCC2)cc1` came in with a melting point of 250 to 253 °C.
Molecule `O=C(O)COCCN(C1CC1)S(=O)(=O)c1ccccc1Cl` came in with a melting point of 115 °C.
As to `Cn1nc(-c2c(F)cccc2Cl)nc1-c1ccc(CO)c(Cl)c1`, the melting point was in the range of 111 to 113 °C.
Regarding `Cn1c(C(=O)N[C@H]2CCCC[C@H]2C(=O)N[C@@H](CCC(N)=O)C(N)=O)cc2ccccc21`, the melting point is 234 to 235 °C.
`O=c1[nH]c(S)ncc1OC1CCCCO1` (stereo not given): the melting point is greater than 300 °C.
As for `CCc1nn(C2CCCC2)c2cc(C(=O)Nc3ccc(C(=O)OC)cc3)ccc12`, the melting point was in the range of 129 to 132 °C.
The molecule `CCCCCCCCCCCCCCCCCCNCP(=O)(O)O` returned a melting point of 108 to 112 °C.
As to `O=C(Nc1ccccc1)ONC1=Nc2ccc([N+](=O)[O-])cc2C(c2ccccc2Cl)=NC1`, the melting point lay within 201 to 203 °C.
Consider `C=Cn1cc(C(=O)O)c(=O)c2ccc(N3CCN(C)CC3)nc21`, for which the melting point was 238 to 239 °C.
`CCc1cc(C(C)=O)c(O)cc1OCCCC(C)(C)C#N` displayed a melting point of 55 to 56 °C.
Molecule `O=C1c2ccccc2C(=O)N1CCCCc1cc(-c2ccccn2)nc(-c2ccccn2)c1` displayed a melting point of 128 °C.
In the case of `C[N+](C)([O-])c1ccc(/C=C/c2c(Cl)cccc2Cl)cc1`, the melting point lay within 80 to 82 °C.
`CCCCc1oc2ccccc2c1-c1ncc(-c2ccc3c(Br)c(O)ccc3c2)o1` registered a melting point of 172 to 174 °C.
Molecule `COc1ccc(NC(=O)CCCCC(=O)Cc2ccccc2)cc1` gave a melting point of 131 to 132 °C.
`CCCc1nc2c(N)nc3ccccc3c2n1CCCC(C)N(OC)C(=O)NC1CCCC1` (stereo not given) had a melting point of 182 to 184 °C.
Regarding `CC(C)[Si](C(C)C)(C(C)C)n1cc(SC(=O)c2ccccc2)c(C(=O)c2ccccc2)c1`, the melting point lay within 120 to 122 °C.
In the case of `CC(=Cc1ccccc1)C(=O)c1ccc(O)c(CC(=O)O)c1` it was 192 °C; in that of `O=[N+]([O-])C=C1CN=C(c2ccccc2F)c2cc(Cl)ccc2N1`, 170 to 172 °C; in that of `COc1cc2ncnc(N3CCC(C(O)CN4CCC(C)NS4(=O)=O)CC3)c2cc1OC` (stereo not given), 189 to 193 °C.
With `COc1ccc(S(=O)(=O)C(CCCc2ccccc2)(CCCc2ccccc2)C(=O)O)cc1`, the melting point was 118 to 120 °C.
Take `FCCOc1ccc(COCc2ccc(Cl)cc2)cc1`: the melting point was 43 to 43.7 °C.
`CCN(c1cc(C)c(C)c2cc(-c3ncc(CO)s3)[nH]c12)S(=O)(=O)c1cccs1` registered a melting point of 189 to 190 °C.
`CCOC(=O)CCn1c(=O)[nH]c2ccccc2c1=O` returned a melting point of 192 to 194 °C.
`CC(=O)n1nc(-c2nc3ccccc3o2)oc1=O` registered a melting point of 231 to 232 °C.

The values are drawn from a melting point compilation (Tetko et al.; mined from patent text by program, amines drawn as free bases though some values may be those of a salt).
